Experimental data: patent US7074761B1, “Peptides and production and use thereof” (Takeda Chemical Ind., Ltd., priority 1996, dated 2006)
Where a SMILES comes first, the peptide text is derived from it. Bridges are numbered along the chain shown (N, C = ends).

Tests used:
rat electroencephalogram = test: Effect on the rat electroencephalogram (sleep-wakefulness); type: in vivo
Experimental: Using male Jcl:Wistar rats (b. wt. 300˜350 g, approx.) under pentobarbital anesthesia (50 mg/kg, i.p.), the head was immobilized in a rat brain stereotaxic apparatus and the skull was drilled for placement of a screw electrode for cortical derivation and a stainless steel bipolar electrode for hippocampal derivation (A:−2.6, L:2.5, H:3.5, Pellegrino and Cushman Brain Atlas). A bipolar stainless steel needle electrode for recording an electromyogram was also inserted into the muscle layer in the dorsocervical region. All the electrodes were connected to a socket on the cranium and fixed with a dental cement. For administration of the test drug solution into the paracele, a 27-G stainless steel guide cannula was inserted in such a manner that the coordinates of its tip would be A:−0.4, L:1.7, H:1.7, and was fixed together with the EEG electrodes using a dental cement. A stilet was inserted into the guide cannula to prevent plugging of the cannula bore by tissue and blood. After postoperative recovery, the animal was submitted to the experiment. The rat was acclimatized to the experimental environment for at least 1 hour and either hCS-17 dissolved in phosphate buffered saline (PBS) or PBS was administered into the paracele via a 30-G infusion cannula. The electroencephalogram was recorded for 4 hours following administration of the test drug. The dose volume was 5 μl and the dose was 0.1 or 1 nmol. Control animals were similarly dosed with PBS.
The sleep-wakefulness was monitored by visual reading of the polygram and evaluated by frequency analysis and power analysis and classified into the following categories.
During this time, electromyographic activity is high.
(2) SWS1 (Shallow-and-Slow Wave Sleep) and SWS2 (Deep-and-Slow Wave Sleep):
The rat assumes a sleeping posture and delta waves (spindle waves) or high-amplitude, slow-waves appear in the cerebral cortex and high-amplitude, slow-waves, appear in the hippocampal derivation. During this period, electromyographic activity is decreased (SWS1) or absent (SWS2).
(3) PS (Paradoxical Sleep):
Alpha waves (low-amplitude, fast waves) appear in the cerebral cortex and theta waves (rhythmic waves) in the hippocampal derivation. During this period, electromyographic activity is absent.
Using 5˜6 rats per group, hCS-17 and PBS were respectively injected into the same rat to evaluate the relative effect on wakefulness. Analysis for statistical significance was made by paired t-test.

human SSTR2 = target: T1, human SSTR2 (Homo sapiens, UniProt P30874); test: cAMP accumulation inhibiting activity in SSTR2 expressing CHO cells (forskolin stimulated); type: cell-based; conditions: forskolin 10 μM, CHO cells SSTR2-HS5-9; read-out: ED50, inhibition of intracellular cAMP accumulation, SSTR2
T1 construct: expressed in transfected cells; host or cells: CHO(dhfr-) cells, clone SSTR2-HS5-9, plasmid pAC01 (vector pAKKO-111)
Experimental: For measuring the intracellular accumulations of cyclic adenosine 3′,5′-monophosphate (cAMP), the human somatostatin receptor expressing cell lines SSTR2-HS5-9, SSTR3-15-19, SSTR4-1-2 and SSTR5-32-4 respectively described in Reference Example 2 (3), Reference Example 3 (3), Reference Example 4 (3) and Reference Example 5 (3) were multiplied on 24-well plates until confluency. Said cells were washed with two 1-ml portions of medium A [Dulbecco-'s modified Eagle's medium (DMEM), 20 mM 2-[4-(2-hydroxyethyl)-1-piperazinyl]ethanesulfonic acid (HEPES) (pH. 7.5), 0.2% BSA, 0.2 mM 3-isobutyl-1-methylxanthine (IBMX)] and then 400 μl of medium A was added to each well and incubation was carried out at 37° C. for 1 hour. To each well were added 50 μl of a hCS-15 or hCS-17 solution (each diluted to a concentration 10 times the final concentration with medium A) and 50 μl of a forskolin solution (final concentration: 10 μM), and incubation was carried out at 37° C. for 30 minutes. The cells were washed with two 1-ml portions of medium A and then 500 μl of medium A and 100 μL of 20% aqueous perchloric acid solution were added to each well, followed by standing at 4° C. for 20 minutes for cell lysis. […] The amount of cAMP contained in this extract was determined using an Amersham's kit (cAMP EIA system).

T1 sequence (P30874 whole entry): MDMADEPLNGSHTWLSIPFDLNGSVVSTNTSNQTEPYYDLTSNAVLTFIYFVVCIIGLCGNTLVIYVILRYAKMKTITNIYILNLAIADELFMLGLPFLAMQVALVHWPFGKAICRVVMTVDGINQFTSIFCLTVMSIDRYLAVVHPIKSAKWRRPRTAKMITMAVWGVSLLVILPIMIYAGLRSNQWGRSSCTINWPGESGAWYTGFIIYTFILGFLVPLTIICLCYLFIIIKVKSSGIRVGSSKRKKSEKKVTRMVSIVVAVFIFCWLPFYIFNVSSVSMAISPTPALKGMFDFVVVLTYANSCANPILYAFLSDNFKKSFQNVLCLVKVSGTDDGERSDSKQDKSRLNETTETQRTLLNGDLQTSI

SMILES | PS (paradoxical sleep) occupancy time vs PBS (rat electroencephalogram; 0.1 nmol into the paracele) | SWS1 (shallow-and-slow wave sleep) occupancy time vs PBS (rat electroencephalogram; 0.1 nmol into the paracele) | SWS2 (deep-and-slow wave sleep) occupancy time vs PBS (rat electroencephalogram; 0.1 nmol into the paracele) | animals showing flattening of the EEG patterns (rat electroencephalogram; 0.1 nmol into the paracele) | wakefulness time (percent occupancy of 4 hour EEG recording) vs PBS (rat electroencephalogram; 0.1 nmol into the paracele) | PS (paradoxical sleep) occupancy time vs PBS (rat electroencephalogram; 1 nmol into the paracele) | SWS1 (shallow-and-slow wave sleep) occupancy time vs PBS (rat electroencephalogram; 1 nmol into the paracele) | SWS2 (deep-and-slow wave sleep) occupancy time vs PBS (rat electroencephalogram; 1 nmol into the paracele) | animals showing flattening of the EEG patterns (rat electroencephalogram; 1 nmol into the paracele) | duration of flattening of cortical and hippocampal EEG patterns (rat electroencephalogram; immediately after administration into the paracele) | EC50 (human SSTR2)
CSCC[C@H](NC(=O)[C@H](CCCNC(=N)N)NC(=O)[C@@H](N)CC(=O)O)C(=O)N1CCC[C@H]1C(=O)N[C@H]1CSSC[C@@H](C(=O)N[C@@H](CCCCN)C(=O)O)NC(=O)[C@H](CO)NC(=O)[C@H](CO)NC(=O)[C@H](Cc2ccccc2)NC(=O)[C@H]([C@@H](C)O)NC(=O)[C@H](CCCCN)NC(=O)[C@H](Cc2c[nH]c3ccccc23)NC(=O)[C@H](Cc2ccccc2)NC(=O)[C@H](Cc2ccccc2)NC(=O)[C@H](CC(N)=O)NC(=O)[C@H](CCCNC(=N)N)NC1=O [hCS-17] | significantly decreased | tendency toward decrease | toward increase | 2 out of 5 | not different from the PBS control group | decrease | significant decrease | increase | 4 out of 6 | 3˜5 minutes | –
CSCC[C@H](N)C(=O)N1CCC[C@H]1C(=O)N[C@H]1CSSC[C@@H](C(=O)N[C@@H](CCCCN)C(=O)O)NC(=O)[C@H](CO)NC(=O)[C@H](CO)NC(=O)[C@H](Cc2ccccc2)NC(=O)[C@H]([C@@H](C)O)NC(=O)[C@H](CCCCN)NC(=O)[C@H](Cc2c[nH]c3ccccc23)NC(=O)[C@H](Cc2ccccc2)NC(=O)[C@H](Cc2ccccc2)NC(=O)[C@H](CC(N)=O)NC(=O)[C@H](CCCNC(=N)N)NC1=O [hCS-15] (H-MPCRNFFWKTFSSCK-OH; disulfide 3-14; N-terminus and C-terminus assumed) | – | – | – | – | – | – | – | – | – | – | 7 nM
